Consider one compound from patent US11413297B2, “Therapies for treating and preventing chronic rhinosinusitis” (Avanti Polar Lipids, LLC, priority 2017, dated 2022).

“Also recorded” adds a separate entry of the source.

Common to all, as to type: cell-based
Experiment [1] has as its system preformed S. aureus (ATCC BAA-1720) biofilms. In words: Disruption of preformed S. aureus biofilm, crystal violet staining (Example 1). The procedure:
We performed in vitro studies of the capacity of phospholipids together with antibiotics to disrupt preformed bacterial biofilms. The tests were conducted as follows. Biofilm formation was obtained by culturing (1) S. aureus in tryptic soy broth media supplemented with 5% glucose; and (2) P. aeruginosa in cation-adjusted Mueller Hinton Broth after incubation at 37 degrees C. for 24 hours in 96 well plates. The medium was then removed and replaced by treatment solutions of antibiotics, antibiotics+phospholipids, phospholipids alone, or control solutions. Phospholipid concentration used in the assays was 512 μg/ml although in some studies, was […]. After 24 hours at 37 degrees C., media was removed and fresh medium was added and the 96-well plates incubated at 37 degrees C. for 24 hours. Media were then removed and biofilm at the base of the wells was stained with crystal violet and quantitated.

The test system of experiment [2] is S. aureus (ATCC BAA-1720) biofilm formation. The experiment in a line: Prevention of S. aureus biofilm formation, crystal violet at 540 nm (Example 2). The conditions noted are these: 24 hours. The procedure:
We also performed in vitro tests of the capacity of phospholipids together with antibiotics to prevent formation of biofilms. Freshly grown S. aureus and P. aeruginosa were quantitated and placed in 96-well plates together with phospholipids plus gentamicin and tobramycin (antibiotics), phospholipids alone, antibiotics alone or controls solution. After 24 hours at 37 degrees C., the fluids were removed and the wells stained with crystal violet, and then the density of crystal violet in the wells was quantitated by absorption of light at 540 nm.

The subject of experiment [3] is preformed P. aeruginosa biofilms. The experiment in a line: Disruption of preformed P. aeruginosa biofilms, crystal violet (Example 3). Conditions: in combination with gentamicin, phospholipid 512, 1024 and 2048 μg/ml. The procedure: We performed in vitro studies of the capacity of phospholipids together with antibiotics to disrupt preformed bacterial biofilms. The tests were conducted as follows. Biofilm formation was obtained by culturing P. aeruginosa in cation-adjusted Mueller Hinton Broth after incubation at 37 degrees C. for 24 hours in 96 well plates. The medium was then removed and replaced by treatment solutions of gentamicin, phospholipids plus gentamicin, or control solutions. Either three or four different phospholipids (MAPCHO-10, MAPCHO-12, MAPCHO-14, and MAPCHO-16) were tested at three different phospholipid test concentrations (512 μg/ml, 1024 μg/ml, and 2048 μg/ml). After 24 hours at 37 degrees C., media was removed and fresh medium was added and the 96-well plates were incubated at 37 degrees C. for either 6 hours or 24 hours. Media were then removed and biofilm at the base of the wells was stained with crystal violet and quantitated.

A further experiment concerns P. aeruginosa. In words: Inhibition of growth of planktonic P. aeruginosa, OD600 (Example 4). Conditions: in combination with gentamicin, compared to gentamicin alone. The procedure: We performed in vitro studies of the capacity of phospholipids together with antibiotics to inhibit the growth of planktonic bacteria. The tests were conducted as follows. Freshly grown P. aeruginosa was quantitated and placed in 96-well plates together with gentamicin alone, phospholipids plus gentamicin, or control solutions. Four different phospholipids (MAPCHO-10, MAPCHO-12, MAPCHO-14, and MAPCHO-16) were tested at two different phospholipid test concentrations (1024 μg/ml and 2048 μg/ml). After 24 hours at 37 degrees C., media was removed and fresh medium was added and the 96-well plates were incubated at 37 degrees C. for either 6 hours or 24 hours. Bacterial density was then analyzed and measured at OD600.

Experiment [4] has as its system P. aeruginosa biofilm formation. In words: Prevention of P. aeruginosa biofilm formation, crystal violet (Example 5). The conditions noted are these: in combination with gentamicin; 24 h; phospholipid 1024 or 2048 μg/ml; FIGS. 8B, 8C. The protocol: We performed in vitro tests of the capacity of phospholipids together with antibiotics to prevent formation of biofilms. Freshly grown P. aeruginosa was quantitated and placed in 96-well plates together with gentamicin alone, phospholipids plus gentamicin, or control solutions. Four different phospholipids (MAPCHO-10, MAPCHO-12, MAPCHO-14, and MAPCHO-16) were tested at two different phospholipid test concentrations (1024 μg/ml and 2048 μg/ml). After 24 hours at 37 degrees C., the fluids were removed and the wells stained with crystal violet, and then the density of crystal violet in the wells was quantitated.

A further experiment concerns S. aureus. In words: Inhibition of growth of planktonic S. aureus, OD600 (Example 8). The conditions noted are these: in combination with gentamicin, compared to gentamicin alone; 6 h; phospholipid 256, 512, 1024 μg/ml. The protocol:
We performed in vitro studies of the capacity of phospholipids together with antibiotics to inhibit the growth of planktonic bacteria. The tests were conducted as follows. Freshly grown S. aureus was quantitated and placed in 96-well plates together with gentamicin alone, phospholipids plus gentamicin, or control solutions. Two different phospholipids (MAPCHO-10 and MAPCHO-12) were tested at three different phospholipid test concentrations (256 μg/ml, 512 μg/ml, and 1024 μg/ml). After 24 hours at 37 degrees C., media was removed and fresh medium was added and the 96-well plates were incubated at 37 degrees C. for 6 hours. Bacterial density was then analyzed and measured at OD600.

A further experiment relates to MRSA biofilm formation. In words: Prevention of MRSA biofilm formation at 6 h, crystal violet (Example 11). Conditions: in combination with gentamicin, phospholipid 512 μg/ml and 1024 μg/ml. The protocol:
We performed in vitro tests of the capacity of phospholipids together with antibiotics to prevent formation of biofilms. Freshly grown MRSA was quantitated and placed in 96-well plates together with gentamicin alone, phospholipids plus gentamicin, or control solutions. Two different phospholipids (MAPCHO-10 and MAPCHO-12) were tested at three different phospholipid test concentrations (256 μg/ml, 512 μg/ml, and 1024 μg/ml). After 6 hours at 37 degrees C., the fluids were removed and the wells stained with crystal violet, and then the density of crystal violet in the wells was quantitated.

Experiment [5] deals with S. aureus (NCTC 8325) biofilm formation. In words: Prevention of S. aureus (NCTC 8325) biofilm formation, crystal violet at 540 nm (Example 12). The conditions noted are these: 24 hours. The procedure:
We also performed in vitro tests of the capacity of phospholipids together with antibiotics to prevent formation of biofilms. Freshly grown S. aureus (NCTC 8325) were quantitated and placed in 96-well plates together with phospholipids plus gentamicin and tobramycin (antibiotics) or antibiotics alone. After 24 hours at 37 degrees C., the fluids were removed and the wells stained with crystal violet, and then the density of crystal violet in the wells was quantitated by absorption of light at 540 nm.

On to `CCCCCCCCCCCCOP(=O)([O-])OCC[N+](C)(C)C` [MAPCHO-12, N-dodecylphosphocholine], for which the “disruption of preformed biofilm of S. aureus” value in experiment [1] (agent alone (gentamicin alone or phospholipid alone)) was “did not disrupt the biofilm”; in experiment [1] (phospholipid together with gentamicin, FIG. 2), “disrupt preformed biofilm”. Also, the “sterilization of S. aureus on disruption of the biofilm” value in experiment [1] (phospholipid/gentamicin combination) was “sterilized”. Moreover, the “prevention of biofilm formation by S. aureus” value was “did not prevent biofilm formation” in experiment [2] (agent alone (gentamicin alone at low concentrations, or phospholipid alone)) and “did prevent biofilm formation” in experiment [2] (phospholipid combined with gentamicin at low concentrations, FIG. 3). Also, the “disruption of preformed P. aeruginosa biofilms” value in experiment [3] (6 h time point, FIGS. 4B-4D) is recorded as “disruption of P. aeruginosa biofilms occurs”. Further, the “eradication of preformed P. aeruginosa biofilms” value in experiment [3] (24 h time point, FIGS. 5A-5C) is on record as “nearly complete eradication”. Moreover, the “inhibition of P. aeruginosa growth” value with P. aeruginosa (6 h time point, phospholipid 1024 and 2048 μg/ml) was “moderate inhibition”; in the experiment with P. aeruginosa (24 h time point, highest phospholipid dose 2048 μg/ml), “significant inhibition”. The “prevention of P. aeruginosa biofilm formation” value in experiment [4] is listed as “effective at preventing”. In the experiment with S. aureus, the “inhibition of S. aureus growth” value was “strong inhibition”. Moreover, the “prevention of MRSA biofilm formation compared to gentamicin alone” value with MRSA biofilm formation is given as “tends to be more effective”. Further, the “effect on formation of biofilm by S. aureus (NCTC 8325)” value in experiment [5] (512 μg dose of phospholipid in combination with gentamicin, FIGS. 15, 16) is “positive effects; also recorded: able to prevent biofilm formation”; in experiment [5] (512 μg dose of phospholipid in combination with tobramycin, FIGS. 15, 17), “positive effects; also recorded: able to prevent biofilm formation”. Besides, the “prevention of biofilm formation by S. aureus (NCTC 8325)” value in experiment [5] (agent alone (antibiotic alone at low concentrations, or phospholipid alone)) is given as “did not prevent biofilm formation”.
